For data set [1], the target named is T1, coagulation factor XIa protease (FXIa) (Homo sapiens, UniProt P03951).
T1 construct: purchased Abcam ab62411
Nature of the data set: Inhibition of coagulation factor XIa (FXIa), chromogenic substrate, absorbance at 405. Type of data set: biochemical. The following applies: FXIa 0.05 μg/mL, substrate 2.5 mM, 37° C. 15 minutes. How it is done: Coagulation factor XIa protease (FXIa) decomposed the specific substrate to produce yellow p-nitroaniline (pNA), pNA had strong absorption at 405 nm. The inhibitory activity of the compounds on coagulation factor XIa was determined by assaying the absorbance of the compounds at […].
The coagulation factor XIa protease used in the experiment was purchased from Abcam Company, Item No. ab62411; the coagulation factor XIa-specific substrate was purchased from HYPHEN BioMed, Item No. Biophen cs-21 (66); tris-HCl was purchased from Invitrogen, Item No. 15567-027; NaCl was purchased from ABCONE, Item No. S39168; Twain 20 was purchased from Amersco, Item No. 0777-1L.
(§1) The compounds were dissolved in 100% DMSO, 20 mM, and stored at room temperature in a nitrogen cabinet.
a. 20 mM of the tested compound was diluted to 2 mM using 100% DMSO, and the reference compound was diluted to 0.4 mM; the compound was continuously diluted with a 3-fold gradient at 10 concentration points using a Bravo liquid workstation.
b. The ECHO liquid workstation was used to transfer 10 nL of compound to the corresponding 384-well experimental plate with double replicate wells; the final concentrations of compound reactions were 1000, 333.3, 111.1, 37.0, 12.3, 4.1, 1.37, 0.46, 0.15, and 0.05 nM. The final concentrations of reference compounds were 200, 66.7, 22.2, 7.4, 2.47, 0.82, 0.27, 0.09, 0.03, 0.01 nM.
c. 10 nL DMSO and 10 nL 0.4 mM reference compounds were transferred to high signal control pores and low signal control pores respectively.
d. 0.1 μg/mL FXIa enzyme solution was prepared with buffer solution, and 10 μL enzyme solution was added to 384-well experimental plate, 5 mM substrate solution was prepared using buffer solution, and […] substrate solution was added to a 384-well experimental plate. The final concentration of FXIa was 0.05 μg/mL and the final concentration of the substrate was 2.5 mM.
e. The 384-hole experimental plate was centrifuged and incubated at 37° C. for 15 minutes.
f. The absorbance was measured at 405 nm using EnVision.

Another data set relates to human plasma. Nature of the data set: Anticoagulant effect on human blood in vitro (APTT clotting time, CT2.0). As to conditions: final concentration of compound corresponding to aPTT of the 2-fold blank control. The protocol: Activated partial thromboplastin time (APTT) measurement reagent was mixed with plasma and the reaction was carried out continuously resulting in a change in optical density up to the clotting point, and the clotting time (CT) was measured by optical turbidimetry using a semi-automatic coagulation analyzer. The in vitro anticoagulant activity of compounds on human blood was determined by detecting the clotting time of plasma treated with different concentrations of compounds, and the corresponding concentration of compounds prolonging clotting time was calculated.
Human plasma used in the experiment was purchased from HD Biosciences (Shanghai) Co., Ltd.; Activated partial thromboplastin time determination kit was purchased from Taizhou Zhongqin Shidi Biotechnology Co., Ltd., Item No. SS00220005.
as §1
a. The NaCl reagent in the kit was incubated half an hour in advance, and the APTT reagent was balanced to room temperature.
b. The compound was continuously diluted at 14 concentration points using a Bravo liquid workstation with a 2-fold gradient.
c. 0.75 μL of the compound was added to the measuring cup, double-replicate wells; 50 μL of plasma was added and 50 μL of APTT reagent was added, the mixture was mixed well and put into coagulation analyzer for incubation at 37° C. for 3 minutes.
d. APTT assay was started, 50 μL of NaCl was added to start the reaction, and the clotting time was counted.
e. Control clotting time was measured using 100% DMSO instead of the compound, and the final concentration of DMSO was 0.5%.
Data were curve-fitted using Graphpad Prism to calculate CT2.0, the final concentration of compound corresponding to aPTT of the 2-fold blank control was calculated.

Data set [2] in a line: Pharmacokinetic experiment in rats, intravenous injection and oral administration. Type of data set: in vivo. The following applies: male Sprague Dawley rats; for F: intragastric administration 2 mg/kg vs intravenous 1 mg/kg; for AUC(0-inf) / Cmax / half-life / clearance / Vd: rat, plasma; for Vd: read-out: Vz. The protocol: In this experimental embodiment, in vivo pharmacokinetic evaluation was performed in rats by intravenous injection and oral administration.
Experimental methods and conditions: Male Sprague Dawley rats were given the test compound 1 mg/Kg (intravenous injection, solvent 5% DMSO/10% Solutol/85% Saline) and 2 mg/Kg (intragastric administration, solvent 0.5% MC) by respectively; 5 min, 15 min, 30 min, 1 hr, 2 hr, 4 hr, 6 hr, 8 hr, 24 hr after administration, blood was collected from submandibular vein, 0.20 mL was collected from each sample , and heparin sodium was used for anticoagulation. After collection, the sample was placed on ice, and the plasma was centrifuged to be measured within 1 hour. Plasma drug concentration in plasma was detected by liquid chromatography tandem mass spectrometry (LC/MS/MS) to calculate pharmacokinetic parameters.

[3] abbreviates: po, intragastric administration 2 mg/kg.
Where [4] appears, read: intravenous administration 1 mg/kg.

Structures are written as SMILES. pIC50: −log10 of the molar value.

T1 sequence (P03951 388-625 limits assumed): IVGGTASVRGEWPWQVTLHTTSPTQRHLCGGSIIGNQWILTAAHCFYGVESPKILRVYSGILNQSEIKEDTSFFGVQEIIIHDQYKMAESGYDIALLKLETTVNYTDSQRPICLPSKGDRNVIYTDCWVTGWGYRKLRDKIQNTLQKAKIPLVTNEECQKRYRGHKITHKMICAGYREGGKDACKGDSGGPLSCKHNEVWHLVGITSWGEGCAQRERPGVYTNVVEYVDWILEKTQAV
T1 sequence (P03951 19-387 partner limits assumed): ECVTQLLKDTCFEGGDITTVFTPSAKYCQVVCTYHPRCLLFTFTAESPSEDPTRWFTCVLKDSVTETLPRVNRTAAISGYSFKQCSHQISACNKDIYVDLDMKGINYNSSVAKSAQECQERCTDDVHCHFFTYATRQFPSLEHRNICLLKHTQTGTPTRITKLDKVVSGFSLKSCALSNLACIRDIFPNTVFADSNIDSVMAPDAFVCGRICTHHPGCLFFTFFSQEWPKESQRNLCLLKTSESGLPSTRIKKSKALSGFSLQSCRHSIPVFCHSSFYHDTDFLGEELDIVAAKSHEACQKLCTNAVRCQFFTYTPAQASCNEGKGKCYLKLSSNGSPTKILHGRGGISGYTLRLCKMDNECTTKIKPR

`O=C1CCc2c(ccc(-c3cnc([C@@H]4[C@H]5C[C@H]5c5nc(-c6cc(Cl)ccc6-n6cc(Cl)nn6)cc(=O)n54)[nH]3)c2F)N1` [Embodiment 90]: the pIC50 in data set [1] was 8.20. Moreover, the CT2.0 in the data set with human plasma amounted to 0.63 µM. Moreover, the F in data set [2] turned out to be 28.4%. Besides, in data set [2] (setting [3]), the total exposure AUC(0-inf) is 17600 ng·h/mL, the concentration peaked (Cmax) at 1830 ng/mL and the half-life was 3.16 h. In data set [2] (setting [4]), the total exposure AUC(0-inf) was 26900 ng·h/mL, the clearance turned out to be 0.63 mL/min/kg, the half-life is 3.41 h and the Vd amounted to 0.18 L/kg.

The compound `O=c1[nH]c2ccc(-c3[nH]c([C@@H]4[C@H]5C[C@H]5c5cc(-c6cc(Cl)ccc6-n6cnnn6)cc(=O)n54)nc3F)cc2cc1C(F)(F)F` [Embodiment 58] gave a pIC50 in data set [1] of 8.49. In the data set with human plasma, this compound yielded a CT2.0 of 1.21 µM.

In the case of `Nc1ccc(-c2nc(F)c([C@@H]3[C@H]4C[C@H]4c4cc(-c5cc(Cl)ccc5-n5cnnn5)cc(=O)n43)[nH]2)c(F)n1` [Embodiment 36], in data set [1], the negative-log IC50 (pIC50) was 8.48. In the data set on human plasma, this compound had a CT2.0 of 0.42 µM. The same compound returned a F in data set [2] of 25.32%. In data set [2] (setting [3]), the area under the curve AUC(0-inf) was found to be 3310 ng·h/mL, the Cmax is 709 ng/mL and the half-life is 1.63 h. In addition, in data set [2] (setting [4]), the AUC(0-inf) turned out to be 6530 ng·h/mL, the clearance came to 2.66 mL/min/kg, the half-life was 1.65 h and the Vd was found to be 0.349 L/kg.

`O=C1CCc2cc(-c3[nH]c([C@@H]4[C@H]5C[C@H]5c5cc(-c6cc(Cl)ccc6-n6cc(C(F)(F)F)nn6)cc(=O)n54)nc3F)ccc2N1` [Embodiment 81] showed a pIC50 in data set [1] of 8.27. In the data set with human plasma, this compound returned a CT2.0 of 2.28 µM.

As for `CC1Cc2cc(-c3[nH]c([C@@H]4[C@H]5C[C@H]5c5cc(-c6cc(Cl)ccc6-n6cnnn6)cc(=O)n54)nc3F)ccc2NC1=O` (some centres unmarked) [Embodiment 59], the pIC50 in data set [1] was 8.85. For the same compound, in the data set on human plasma, the CT2.0 amounted to 0.84 µM.

Compound `Nc1n[nH]c2cc(-c3cnc([C@@H]4[C@H]5C[C@H]5c5cc(-c6cc(Cl)ccc6-n6cc(Cl)nn6)cc(=O)n54)[nH]3)ccc12` [Embodiment 32] had a negative-log IC50 (pIC50) in data set [1] of 8.57. Also, the CT2.0 in the data set on human plasma was 0.26 µM.

Compound `O=C1CCc2cc(-c3[nH]c([C@@H]4[C@H]5C[C@H]5c5cc(-c6cc(Cl)ccc6-n6cc(C(F)(F)F)nn6)cc(=O)n54)nc3Cl)ccc2N1` [Embodiment 80] showed a negative logarithm of the IC50 (pIC50) in data set [1] of 8.20. In addition, the CT2.0 in the data set on human plasma is 3.50 µM.

In turn, `O=c1cc(-c2cc(Cl)ccc2-n2cnnn2)cc2n1[C@H](c1ncc(-c3ccc4c(c3)CCc3cn[nH]c3-4)[nH]1)[C@H]1C[C@@H]21` [Embodiment 42] gave a pIC50 in data set [1] of 8.06. The compound further yielded a CT2.0 in the data set with human plasma of 1.08 µM.

In data set [1], `Nc1noc2cc(-c3[nH]c([C@@H]4[C@H]5C[C@H]5c5cc(-c6cc(Cl)ccc6-n6cc(C(F)(F)F)nn6)cc(=O)n54)nc3F)ccc12` [Embodiment 79] showed a pIC50 of 8.99. In the data set with human plasma, this compound gave a CT2.0 of 0.72 µM.

In data set [1], `Nc1n[nH]c2cc(-c3[nH]c([C@@H]4[C@H]5C[C@H]5c5cc(-c6cc(Cl)ccc6-n6cc(C(F)F)nn6)cc(=O)n54)nc3F)ccc12` [Embodiment 83] had a pIC50 of 9.08. The same compound yielded a CT2.0 in the data set with human plasma of 0.82 µM.

In data set [1], `O=C1COc2cc(-c3[nH]c([C@@H]4[C@H]5C[C@H]5c5cc(-c6cc(Cl)ccc6-n6cc(Cl)nn6)cc(=O)n54)nc3F)ccc2N1` [Embodiment 62] gave a pIC50 of 8.17. The CT2.0 in the data set on human plasma was determined as 2.32 µM.

Source of the values: patent US20220251095A1, “TRICYCLIC COMPOUND, PREPARATION METHOD THEREFOR AND USE THEREOF” (SHANGHAI JEMINCARE PHARMACEUTICALS CO., LTD., priority 2019, published 2022).
